The source of these data is a melting point compilation (Tetko et al.).

The melting point is the temperature of the solid-liquid transition. Take `OC12CCCCCC1c1ccccc12` (stereo unspecified): the melting point is 100 °C. Then `O=S(=O)(c1ccc(Cl)cc1)N(C1CCNCC1)C1CC1`, with 111 to 114 °C.

Turning to `CC(=O)OCC(=O)C12OC(C)(C)OC1CC1C3CC(F)C4=CC(=O)C=CC4(C)C3(F)C(O)CC12C` (stereo unspecified), the melting point is 309 °C. The value for `Nc1nn2c(-c3ccccc3)cc(=O)[nH]c2c1/N=N/c1c(Br)cc(Br)cc1Br` was 316 °C; that for `C1CCCCCCCCCC1` was -7 °C. For `CC(=O)[C@H]1CC[C@H]2[C@@H]3CC=C4C[C@@H](OC(=O)CCC(=O)O)CC[C@]4(C)[C@H]3CC[C@]12C`, the melting point came out at 180 °C. As to `Cc1cc(C(N)=S)n(C)n1`, the melting point turned out to be 170 °C.

Turning to `c1ccc(-c2cc(N3CCCC3)cc(N3CCCC3)c2)cc1`, the melting point was found to be 174 °C. As for `CC1=NOC(=O)C1=NNc1ccccc1Cl`, the melting point worked out at 168 °C.

For `CC(=O)NCCNC(C)=O`, the melting point was 174 °C. Regarding `O=C(O)c1cc2cc(Br)ccc2s1`, the melting point was 233 to 234 °C. With `O=C(Cl)c1cc2ccccc2n1S(=O)(=O)c1ccccc1`, the melting point is 127 to 128 °C.

`COc1ccc(C(=O)O)cc1[N+](=O)[O-]`: the melting point was 191 to 194 °C. For `O=C(O)CCCCCCCCCCCCC(=O)O`, the melting point was found to be 127 °C.

`COC(=O)c1cc2c(OC)cccc2[nH]1`: the melting point is 140 to 142 °C. Turning to `CCCCCCCCC=CCCCCCCCCO`, the melting point turned out to be 6 °C. Then `COC(=O)c1ccccc1C(=O)c1cc(C)c(O)c(C)c1`, with 155 to 157 °C; and `Cc1cc2nnc(C(=O)O)c(C)n2n1`, with 166 to 168 °C. Take `COc1ccc2cc(-c3ccn[nH]3)ccc2c1`: the melting point is 201 °C.

In turn, `C=C1C(C)CCC2(C)C3=C(C(=O)C4(CC4C)C(OC(C)=O)C3=O)C(OC(C)=O)C(OC(C)=O)C12` (stereo unspecified) showed a melting point of 173 °C. For the molecule `COc1cc2c(cc1OC)C(c1ccc([N+](=O)[O-])cc1)N(C(C)=O)CC2` (stereo unspecified), the melting point is 183 to 185 °C.

On to `Cc1ncc(C#N)c(N)n1`, for which the melting point is 249 to 252 °C.

Molecule `Cn1c(=O)c(C2=NNC(=O)C2=CCc2ccccc2)c(O)c2ccccc21` came in with a melting point of 249 °C. The value for `COc1ccccc1C(=O)Oc1ccc(C(=O)/C=C/c2ccc(N(C)C)cc2)cc1` was 99 °C. The value for `CCn1c(-c2ccccc2)cc2ccccc21` was 86 °C; that for `NC(=O)Cc1nc(-c2ccc([N+](=O)[O-])cc2)cs1` was 202 to 203 °C. The value for `CCN(CC)C(=O)N1CCN(C)CC1` was 48 °C; that for `CCOC(=O)C1=NN(c2ccccc2)C(=O)C1C(Cl)C1C(=O)N(c2ccccc2)N=C1C(=O)OCC` (stereo unspecified) was 221 °C. Turning to `CCn1c2ccccc2c2cc(C=O)ccc21`, the melting point is 85 to 91 °C.

`COc1ccc(-n2ncc(C(=O)Cl)c2C)cc1` registered a melting point of 86 °C. The value for `O=C(NC(CC=Cc1ccccc1)C(=O)O)OCC1c2ccccc2-c2ccccc21` (stereo unspecified) was 142 °C; that for `CC(=O)c1ccc(C#N)s1` was 78 °C. The value for `Oc1ccc(I)cn1` was 190 °C. For the molecule `O=c1c(=O)c2ccccc12`, the melting point stood at 131 °C.

In turn, `Cc1ccc2c(ccc3ccccc32)c1` displayed a melting point of 58 °C. With `Cc1c(C)c(CBr)c(CBr)c(CBr)c1CBr`, the melting point stood at 205 °C.

In turn, `O=C(CBr)c1ccc(Cl)c([N+](=O)[O-])c1` registered a melting point of 83 to 85 °C.

On to `OC(c1ccc(Cl)cc1)c1ccc(Cl)cc1`, for which the melting point turned out to be 92 °C.

Molecule `O=NN(CC(c1ccccc1)c1ccccc1)CC(c1ccccc1)c1ccccc1` had a melting point of 179 °C. The molecule `O=C(O)C(C(=O)O)c1ccsc1` showed a melting point of 139 °C.

Consider `O=C(O)c1cc([N+](=O)[O-])ccc1Br`, for which the melting point came to 180 °C.
